Data on 2 molecules can be found in patent US20220079934A1, “CRENOLANIB FOR TREATING PAIN” (Arog Pharmaceuticals, Inc., priority 2020, published 2022).

The conditions of series [1]: osteoarthritis patients, lowered dose with risk minimization strategy; 22 patients; cited from earlier work.
Series [2] concerns the target T1, wildtype TRKB (Homo sapiens, UniProt Q16620).
T1 construct: purchased Reaction Biology
The series can be described thus: Reaction Biology HotSpot Kinase assay (direct enzyme phosphorylation), TRKB. In kind it is biochemical. The following applies: 33P-ATP, 120 minutes at room temperature, filter-binding. The method, then: (§1) Direct enzyme phosphorylation assay. The Reaction Biology HotSpot Kinase assay was used to screen the present invention against a panel of TRKA, TRKB, and TRKC kinases. For assays of all kinases, the TRK enzyme was prepared in base reaction buffer (20 mM Hepes (pH 7.5), 10 mM MgCl2, 1 mM EGTA, 0.02% Brij35, 0.02 mg/ml BSA, 0.1 mM Na3VO4, 2 mM DTT, 1% DMSO). The reaction was initiated by the addition of 33P-ATP (10 μCi/μL) into the mixture. The reaction mixture was incubated for 120 minutes at room temperature. Radioactivity was detected by filter-binding method, and kinase activity expressed as the percent remaining kinase activity in test samples compared to vehicle reactions. IC50 values and curve fitting were obtained using Prism (GraphPad Software). The activity of the besylate salt of the present invention was determined using a direct enzymatic Reaction Biology HotSpot Kinase assay. All IC50 values are presented in nanomolar concentration. In the direct enzymatic measurement assay, the IC50 of the besylate salt of the current invention against the various TRK kinases is shown in Table 1.

Series [3] concerns the target T2, wildtype TRKC (Homo sapiens, UniProt Q16288).
T2 construct: purchased Reaction Biology
The series can be described thus: Reaction Biology HotSpot Kinase assay (direct enzyme phosphorylation), TRKC. In kind it is biochemical. The following applies: 33P-ATP, 120 minutes at room temperature, filter-binding. The protocol:
as §1

In series [4] the target is T3, wildtype TRKA (Homo sapiens, UniProt P04629).
T3 construct: purchased Reaction Biology
T3 sequence (P04629 33-796): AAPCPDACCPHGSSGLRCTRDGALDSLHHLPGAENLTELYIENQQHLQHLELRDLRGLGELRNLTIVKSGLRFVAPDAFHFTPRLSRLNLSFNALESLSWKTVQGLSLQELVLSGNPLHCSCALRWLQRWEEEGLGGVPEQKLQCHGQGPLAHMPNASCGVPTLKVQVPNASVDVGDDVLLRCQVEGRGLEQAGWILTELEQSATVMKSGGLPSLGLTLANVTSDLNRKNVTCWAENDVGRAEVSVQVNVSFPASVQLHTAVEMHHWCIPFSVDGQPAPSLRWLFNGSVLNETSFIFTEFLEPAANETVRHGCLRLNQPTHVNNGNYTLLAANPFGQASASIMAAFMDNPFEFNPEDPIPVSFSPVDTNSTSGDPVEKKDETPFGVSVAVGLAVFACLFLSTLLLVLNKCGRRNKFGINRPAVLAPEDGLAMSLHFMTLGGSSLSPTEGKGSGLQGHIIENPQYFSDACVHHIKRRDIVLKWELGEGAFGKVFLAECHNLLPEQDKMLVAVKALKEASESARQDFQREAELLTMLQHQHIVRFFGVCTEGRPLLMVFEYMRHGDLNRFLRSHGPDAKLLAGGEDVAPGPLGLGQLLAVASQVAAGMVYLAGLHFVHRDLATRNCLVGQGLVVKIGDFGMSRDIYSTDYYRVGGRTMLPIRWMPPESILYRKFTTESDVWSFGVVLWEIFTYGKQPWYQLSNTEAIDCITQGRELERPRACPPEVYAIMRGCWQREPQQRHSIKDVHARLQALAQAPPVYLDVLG
The series can be described thus: Reaction Biology HotSpot Kinase assay (direct enzyme phosphorylation), TRKA. It is filed as biochemical. The following applies: 33P-ATP, 120 minutes at room temperature, filter-binding. The method, then:
as §1

T2 sequence (Q16288 32-839): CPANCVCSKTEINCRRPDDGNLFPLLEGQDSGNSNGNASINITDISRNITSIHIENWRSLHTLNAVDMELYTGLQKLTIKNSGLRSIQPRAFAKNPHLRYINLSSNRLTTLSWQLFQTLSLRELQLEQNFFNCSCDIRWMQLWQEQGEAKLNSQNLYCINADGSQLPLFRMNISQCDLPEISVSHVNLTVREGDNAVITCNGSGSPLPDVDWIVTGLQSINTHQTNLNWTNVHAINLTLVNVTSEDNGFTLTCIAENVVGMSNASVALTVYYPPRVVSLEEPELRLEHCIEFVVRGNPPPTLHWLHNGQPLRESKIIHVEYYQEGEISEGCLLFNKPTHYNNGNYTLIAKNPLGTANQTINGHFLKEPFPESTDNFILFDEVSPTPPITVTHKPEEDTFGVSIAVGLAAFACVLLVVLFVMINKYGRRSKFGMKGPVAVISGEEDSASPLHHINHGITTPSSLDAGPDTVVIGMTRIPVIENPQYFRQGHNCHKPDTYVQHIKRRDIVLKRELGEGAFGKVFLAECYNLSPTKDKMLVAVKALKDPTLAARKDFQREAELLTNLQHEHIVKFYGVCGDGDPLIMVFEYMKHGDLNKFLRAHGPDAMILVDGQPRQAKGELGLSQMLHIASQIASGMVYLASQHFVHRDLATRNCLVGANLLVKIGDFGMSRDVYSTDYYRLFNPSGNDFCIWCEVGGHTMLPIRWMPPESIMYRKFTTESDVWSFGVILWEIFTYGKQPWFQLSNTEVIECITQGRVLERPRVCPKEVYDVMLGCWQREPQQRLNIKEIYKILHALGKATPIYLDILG
T1 sequence (Q16620 32-822): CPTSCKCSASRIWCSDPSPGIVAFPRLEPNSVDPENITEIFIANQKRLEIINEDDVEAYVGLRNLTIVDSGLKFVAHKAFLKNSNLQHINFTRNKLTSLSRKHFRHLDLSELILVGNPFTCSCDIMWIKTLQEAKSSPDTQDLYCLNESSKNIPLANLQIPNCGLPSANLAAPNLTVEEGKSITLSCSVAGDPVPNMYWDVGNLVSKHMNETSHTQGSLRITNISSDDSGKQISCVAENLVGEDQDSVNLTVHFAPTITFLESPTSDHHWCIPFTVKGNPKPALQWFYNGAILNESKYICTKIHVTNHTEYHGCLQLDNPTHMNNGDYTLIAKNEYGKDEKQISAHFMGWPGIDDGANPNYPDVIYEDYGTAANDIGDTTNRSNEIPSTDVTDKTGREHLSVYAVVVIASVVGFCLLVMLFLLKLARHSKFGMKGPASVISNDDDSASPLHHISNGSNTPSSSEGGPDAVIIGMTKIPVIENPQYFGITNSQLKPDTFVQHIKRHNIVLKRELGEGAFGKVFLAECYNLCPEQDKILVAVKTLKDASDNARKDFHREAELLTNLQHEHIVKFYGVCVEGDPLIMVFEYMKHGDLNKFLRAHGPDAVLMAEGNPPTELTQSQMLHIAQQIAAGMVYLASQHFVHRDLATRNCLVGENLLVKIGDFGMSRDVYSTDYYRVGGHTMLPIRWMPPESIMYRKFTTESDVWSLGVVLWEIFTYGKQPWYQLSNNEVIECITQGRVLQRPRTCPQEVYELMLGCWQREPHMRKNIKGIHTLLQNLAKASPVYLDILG

For the molecule tanezumab, the “patients treated who required knee or joint replacement” value in series [1] is given as 9.4%.

Turning to `CC1(COc2ccc3c(c2)ncn3-c2ccc3cccc(N4CCC(N)CC4)c3n2)COC1` [crenolanib besylate], the IC50 worked out at 77.7 nM in series [2], 1.68 nM in series [3] and 31 nM in series [4].
